# Data from patent US4687773A, “(+)-N-N-propylnorapomorphine and selective limbic activity” (priority 1985, dated 1987).
# Where a name gives a salt, the structure may show the parent alone. Read-outs that look alike come from different tables or passages of the source.
# Tests used:
# [1] = test system: dopamine (DA) receptors in the basal ganglia (corpus striatum); assay: Stereotyped licking and gnawing behavior rating in the rat; assay type: in vivo
# Text: Stereotypy: The mean stereotyped licking and gnawing behavioral rating scheme developed by Tarsy and Baldessarini^8 was used. […]
# Stereotypy scores were rated for one hour as described in […]
# [2] = test system: dopamine (DA) receptors in the limbic system; assay: Locomotor activity (spontaneous or aroused by (-)APO / (-)NPA), electronic activity monitor; assay type: in vivo, rat; conditions: for Locomotion: Table 5; for effect on locomotor-arousal activity (in words): with or without (-) isomer, Hydrochloride
# [3] = Catalepsy (latency to resume normal posture); assay type: in vivo, rat; conditions: s.c., maximum 18.0
# Procedure: Catalepsy: This measure of muscle rigidity is assessed by having animals in abnormal body positions and timing their duration of maintaining these. This is done by placing rats on a wire grid placed at a 45° angle to the benchtop, or by placing their forelimbs on a raised horizontal metal bar, and timing the latency to resume a normal posture by stopwatch.
# All data presented in the Tables below are expressed as the mean results from 4-6 rats per condition, ±S.E.M. Stereotypy is expressed in rating units (maximum=3.0) and activity is expressed in arbitrary units of percent change, derived from EAM counts per unit time, relative to activity in control (saline) animals set at zero.
# [4] = molecular target: T1, Dopamine (DA) sensitive adenylate cyclase (Rattus norvegicus, UniProt P18901); assay: Stimulation of formation of cyclic AMP in rat striatal homogenate; assay type: biochemical
# T1 construct: homogenates of rat corpus striatum; from tissue; host or cells: rat corpus striatum homogenate
# T1 sequence (P18901 whole entry): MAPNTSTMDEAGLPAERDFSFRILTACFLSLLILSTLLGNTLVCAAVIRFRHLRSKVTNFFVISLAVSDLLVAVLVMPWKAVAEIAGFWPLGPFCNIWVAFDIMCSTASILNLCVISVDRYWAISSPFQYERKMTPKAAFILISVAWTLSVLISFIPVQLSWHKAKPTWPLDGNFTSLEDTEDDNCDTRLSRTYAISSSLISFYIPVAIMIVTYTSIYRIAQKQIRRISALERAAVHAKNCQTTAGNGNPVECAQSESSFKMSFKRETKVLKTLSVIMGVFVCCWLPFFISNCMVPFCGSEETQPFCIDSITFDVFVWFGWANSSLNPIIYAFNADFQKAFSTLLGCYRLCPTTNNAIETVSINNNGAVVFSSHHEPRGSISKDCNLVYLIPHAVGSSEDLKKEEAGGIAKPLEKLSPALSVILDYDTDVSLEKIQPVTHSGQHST
# Text: assayed in homogenates of corpus striatum obtained from rat brain. The
# method of assay of the activity of DAsensitive adenylate cyclase by the
# rate of formation of cAMP above a basal (no agonist) level is described
# under Experimental Section. The data are mean values of cAMP levels in […]
# [5] = molecular target: Dopamine Receptors; assay type: binding, calf; conditions: ligand [3H]APO (0.5 nM)
# [6] = molecular target: Dopamine Receptors; assay type: binding, calf; conditions: ligand [3H]ADTN (0.5 nM)
# [7] = molecular target: T2, rat liver catechol O-methyl-transferase (COMT) (Rattus norvegicus, UniProt P22734); assay: Isomeric substrate selectivity for rat liver COMT; assay type: biochemical
# T2 construct: partially purified rat liver catechol O-methyl-transferase (COMT); from tissue; host or cells: rat liver, ammonium sulfate precipitation and dialysis
# T2 sequence (P22734 1-221 isoform P22734-2): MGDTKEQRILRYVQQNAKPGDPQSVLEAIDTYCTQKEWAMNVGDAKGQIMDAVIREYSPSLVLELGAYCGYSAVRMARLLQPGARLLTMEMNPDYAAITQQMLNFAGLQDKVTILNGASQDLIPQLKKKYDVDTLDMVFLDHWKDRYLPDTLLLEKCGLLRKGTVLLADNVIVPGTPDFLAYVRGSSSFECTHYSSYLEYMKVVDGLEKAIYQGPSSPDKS
# [8] = test system: DA in the limbic system (nucleus accumbens septi); assay: Arousal (locomotor activity) induced by DA injected into nucleus accumbens septi; assay type: in vivo, rat; conditions: for activity counts (arousal induced by 16 μg DA in accumbens): 30 min, DA control 238 ± 38
# Procedure: An experiment shown in Table 9 involves testing the effects of S(+) isomers of apomorphine (APO) and N-propylnorapomorphine (NPA) given systemically (intraperitoneally, ip), as well as S(+) methylenedioxy-N-propylnorapomorphine (MDO-NPA) given ip or orally (po, by orogastric intubation). […]. […] Activity was monitored for 30 min after injection of DA into the brain, which was done at 10 min after systemic dosing with an S(+)aporphine test compound.
# Data are mean activity counts ± SEM (N = 6) for rats given DA into the
# medial accumbens after pretreatment with an inhibitor of monoamine oxidas
# (MA0), and monitored on EAM for 30 min (aporphine given 10 min before DA
# systemicallyintraperitoneally [ip] or orally [po].
# [9] = test system: DA in the corpus striatum (basal ganglia); assay: Head posture (contralateral head deviation) after intrastriatal DA; assay type: in vivo, rat; conditions: intrastriatal DA 16 μg; aporphine 3 mg/kg systemic (route not given)
# [10] = 2.5 min, read-out: cAMP production, % of control
structure (smiles),measurement,setting,value
"CCCN1CCc2cccc3c2[C@@H]1Cc1ccc(O)c(O)c1-3 [(+)NPA, (S)-N-n-Propylnorapomorphine Hydrochloride]","Stereotyped behavior induced by (-)APO, Percent of Control",[1]; (+)NPA 3 mg/kg IP after (-)APO 0.3 mg/kg IP,100.0 ± 10.6% of Control
same,"Stereotyped behavior induced by (-)APO, Percent of Control",[1]; (+)NPA 5 mg/kg IP after (-)APO 0.3 mg/kg IP,100.0 ± 12.3% of Control
same,"Stereotyped behavior induced by (-)APO, Percent of Control",[1]; (+)NPA 30 mg/kg IP after (-)APO 0.3 mg/kg IP,102.6 ± 8.9% of Control
same,Stereotypy Score,"[1]; Table 1, (+)NPA 5 mg/kg s.c. ± (-)APO 3 mg/kg s.c. (printed first: (+)NPA), maximum 3.0",2.9 ± 0.1 rating units
same,Stereotypy Score,"[1]; Table 1, (+)NPA 5 mg/kg s.c. ± (-)NPA 3 mg/kg s.c. (printed first: (+)NPA), maximum 3.0",2.9 ± 0.2 rating units
same,Stereotypy Score,"[1]; Table 1, (+)NPA 5 mg/kg, s.c., ± saline, maximum 3.0",0.0 ± 0.0 rating units
same,Stereotypy Score,"[1]; Table 1, (-)APO 3 mg/kg s.c. ± (+)NPA 5 mg/kg s.c. (printed first: (-)APO), maximum 3.0",2.9 ± 0.1 rating units
same,Stereotypy Score,"[1]; Table 1, (-)NPA 3 mg/kg s.c. ± (+)NPA 5 mg/kg s.c. (printed first: (-)NPA), maximum 3.0",3.0 ± 0.0 rating units
same,Stereotypy Score,"[1]; Table 3, 0.1 mg/kg, s.c., maximum 3.0",0 rating units
same,Stereotypy Score,"[1]; Table 3, 0.3 mg/kg, s.c., maximum 3.0",0 rating units
same,Stereotypy Score,"[1]; Table 3, 3.0 mg/kg, s.c., maximum 3.0",0 rating units
same,Stereotypy Score,"[1]; Table 3, 5.0 mg/kg, s.c., maximum 3.0",0 rating units
same,Stereotypy Score,"[1]; Table 5, (+)NPA 3 mg/kg s.c. after (-)NPA 0.3 mg/kg",1.7 ± 0.6 rating units
same,Stereotypy Score,"[1]; Table 5, (+)NPA 3 mg/kg s.c. after (-)NPA 3.0 mg/kg",2.9 ± 0.8 rating units
same,Stereotypy Score,"[1]; Table 5, (+)NPA 3 mg/kg s.c., (-)NPA 0",0 rating units
same,stereotyped behavior (in words),"[1]; rat, in vivo",little effect on stereotyped gnawing
same,Locomotion,[2]; (+)NPA 3 mg/kg s.c. after (-)NPA 0.3 mg/kg,14.8 ± 2.6 percent change
same,Locomotion,[2]; (+)NPA 3 mg/kg s.c. after (-)NPA 3.0 mg/kg,8.5 ± 0.6 percent change
same,Locomotion,"[2]; (+)NPA 3 mg/kg s.c., (-)NPA 0",0 percent change
same,ID50 to reduce the locomotor activating actions of (-)APO,"[2]; s.c., (-)APO 0.3 mg/kg",0.2 mg/kg
same,"ID50, spontaneous locomotor arousal",[2]; spontaneous activity,3 mg/kg
same,effect on locomotor-arousal activity (in words),[2],dose-dependent inhibition of such activity of the R(-) aporphine
same,effect on locomotor-arousal activity (in words),[2]; listed as (+)-N-n-propylnorapomorphine,marked motor-inhibitory effect
same,Catalepsy score,[3]; 0.1 mg/kg,0.6 ± 0.1
same,Catalepsy score,[3]; 0.3 mg/kg,0.4 ± 0.1
same,Catalepsy score,[3]; 3.0 mg/kg,0.6 ± 0.1
same,Catalepsy score,[3]; 5.0 mg/kg,0.6 ± 0.1
same,cAMP production,[4]; 10 μM,2.95 ± 0.19 picomoles per 2.5 min
same,cAMP production,[4]; 100 μM,3.19 ± 0.16 picomoles per 2.5 min
same,"cAMP formation, % of control at 10 µM",[4]; [10],119%
same,"cAMP formation, % of control at 100 µM",[4]; [10],129%
same,IC50,[5],66 nM
same,IC50,[6],60 nM
same,Vmax (range of two experiments),[7]; footnote range,10.2- 13.2 (pmol/assay)/h
same,Vmax,"[7]; mean, substrate of rat liver COMT",11.7 (pmol/assay)/h
same,activity counts (arousal induced by 16 μg DA in accumbens),[8]; 0.3 mg/kg ip,139 ± 17 activity counts
same,activity counts (arousal induced by 16 μg DA in accumbens),[8]; 1.0 mg/kg ip,80 ± 11 activity counts
same,activity counts (arousal induced by 16 μg DA in accumbens),[8]; 3.0 mg/kg ip,54 ± 10 activity counts
same,ED50,"[8]; Rattus norvegicus, ip, read-out: ID50, ip, DA 16 μg in accumbens",0.4 mg/kg
same,ID50,"[8]; ip, DA 16 μg in accumbens, hydrochloride",0.45 mg/kg
same,times more potent than (+)APO as inhibitor of DA in the limbic system,[8]; vs (+)APO,8 times
same,"Contralateral Head Deviation, Percent of Total",[9],66.7% of Total
same,"Contralateral Head Deviation, Time",[9],480 ± 44 s
